From patent US20240286994A1, “NOVEL SQUARAMIDE DERIVATIVE AND USE THEREOF” (PUSAN NATIONAL UNIVERSITY INDUSTRY-UNIVERSITY COOPERATION …, priority 2021, published 2024)

Test system: eIF2α phosphorylation
Assay: Phospho-eIF2α (Ser51) sandwich ELISA in K562 cells
Assay type: cell-based
Settings: serum-free RPMI, 10 μM compound, 6 hours; for Multiple changes in eIF2α phosphorylation at 10 μM (absorbance standardized to control = 1): DMSO-treated control set to 1; for fold induction at 10 µM: Homo sapiens, DMSO-treated control set to 1, read-out: Multiple changes in eIF2α phosphorylation at 10 μM (absorbance standardized to control = 1)
Method: Pathscan Phospho-eIF2a (Ser51) Sandwich ELISA Kit #7286 from Cell signaling was used. The K562 cell line was cultured in serum-free RPMI medium at 37° C. in the presence of 5% CO2. Cells were treated with test compounds at a concentration of 10 μM. Six hours after compound treatment, the cells were lysed with a lysis buffer included in the kit to obtain 50 μg of protein by quantification. Afterwards, ELISA assay was performed according to the manufacturer's protocol to obtain absorbance. The absorbance for each obtained compound was standardized to a value of which the control (DMSO-treated) is set to 1.

## CC(C)(C)c1cccc(Nc2c(N[C@H]3CC[C@H](Oc4ccc(C(F)(F)F)cc4)CC3)c(=O)c2=O)c1 [Compound 28, 3-((3-(tert-Butyl)phenyl)amino)-4-(((1,4-trans)-4-(4-(trifluoromethyl)phenoxy)cyclohexyl)amino)cyclobut-3-ene-1,2-dione]
  Multiple changes in eIF2α phosphorylation at 10 μM (absorbance standardized to control = 1): 1.92

## COc1cccc(Nc2c(N[C@H]3CC[C@H](Oc4ccc(C(F)(F)F)cc4)CC3)c(=O)c2=O)c1 [Compound 33, 3-((3-Methoxyphenyl)amino)-4-(((1,4-trans)-4-(4-(trifluoromethyl)phenoxy)cyclohexyl)amino)cyclobut-3-ene-1,2-dione]
  fold induction at 10 µM: 0.83

## CC(C)(C)c1ccccc1Nc1c(N[C@H]2CC[C@H](Oc3ccc(S(C)(=O)=O)cc3)CC2)c(=O)c1=O [Compound 77, 3-((2-(tert-Butyl)phenyl)amino)-4-(((1,4-trans)-4-(4-(methylsulfonyl)phenoxy)cyclohexyl)amino)cyclobut-3-ene-1,2-dione]
  Multiple changes in eIF2α phosphorylation at 10 μM (absorbance standardized to control = 1): 1.70

## CS(=O)(=O)c1ccc(O[C@H]2CC[C@H](Nc3c(Nc4ccccc4F)c(=O)c3=O)CC2)cc1 [Compound 65, 3-((2-Fluorophenyl)amino)-4-(((1,4-trans)-4-(4-(methylsulfonyl)phenoxy)cyclohexyl)amino)cyclobut-3-ene-1,2-dione]
  fold induction at 10 µM: 1.07
